The values that follow come from PMC5306062, “Pharmacology and toxicology of the novel investigational agent Cantrixil (TRX-E-002-1)” (Cancer Chemotherapy and Pharmacology, 2016).

For data set [1], the system named is C4-2B. Nature of the data set: Cytotoxic activity in human cancer cell lines (72 h growth inhibition). The data set is classed as cell-based. Particulars: Prostate, 72 h incubation, mean ± SEM. From the text: (§1) Activity in pancreatic and colorectal cancer cells and glioblastoma cells was more variable (Table 1).
For data set [2], the system named is DU145. Described as above. Particulars: DU-145, Prostate, 72 h incubation, mean ± SEM. Type of data set: cell-based.
Text: as §1

Data set [3] concerns PC3. The description is as above. The data set is classed as cell-based. Particulars: PC-3, Prostate, 72 h incubation, mean ± SEM.
Text: as §1

Data set [4] concerns OVCAR-3. The data set is described as above. To be noted: Ovarian, 72 h incubation, mean ± SEM. The data set is classed as cell-based.
Text: as §1

In data set [5] the test system is LOVO. The data set is described as above. Type of data set: cell-based. Particulars: Colorectal, 72 h incubation, mean ± SEM.
Text: as §1

In data set [6] the test system is ASPC1. Described as above. Particulars: Pancreatic, 72 h incubation, mean ± SEM. Type of data set: cell-based.
Text: as §1

The subject of data set [7] is A549. The description is as above. Particulars: Lung, 72 h incubation. Type of data set: cell-based.
Text: as §1

Data set [8] deals with JAM. The data set is described as above. The data set is classed as cell-based. Particulars: Ovarian, 72 h incubation, mean ± SEM.
Text: as §1

Data set [9] has as its system HT-29. Described as above. Type of data set: cell-based. To be noted: Colorectal, 72 h incubation, mean ± SEM.
Text: as §1

The nature of data set [10]: GLP telemetry cardiovascular study, intraperitoneal injection. The data set is classed as in vivo, beagle dogs. As for the experimental part:
However, at concentrations of 0.1-10 μM, the drug increased surface expression of the hERG single mutant (hERG-SM), identifying it as a potential blocker of hERG channel activity. […] Potential cardiovascular responses to intraperitoneal injection of TRX-E-002-1 were investigated in a GLP-compliant telemetry study in beagle dogs. Four male dogs received vehicle (20% SBECD) or TRX-E-002-1 (1, 10 or 30 mg/kg) on four separate occasions in a Latin Square design. Blood pressure, heart rate, ECG parameters and body temperatures were continuously recorded from 30 min before dosing until at least 24 h after each dose.

Data set [11] deals with recurrent ovarian cancer model. Nature of the data set: Recurrent ovarian cancer model after paclitaxel (OCSC2-inoculated mice). The data set is classed as in vivo. As for the experimental part:
In vivo, TRX-E-002-1, formulated in 20% SBECD, was active in a disseminated ovarian cancer model and a recurrent ovarian cancer model in which tumour recurrence is investigated following initial treatment of the OCSC2-inoculated mice with paclitaxel. In both models, TRX-E-002-1 inhibited tumour growth following once daily intraperitoneal administration.
In the recurrent ovarian cancer model, once daily intraperitoneal administration of 100 mg/kg TRX-E-002-1 in 20% SBECD for 4 weeks inhibited tumour growth and reduced terminal tumour burden by 77%.

A short description of data set [12]: Excretion study in rats, single intraperitoneal injection. The data set is classed as in vivo, female Sprague–Dawley rats. Particulars: 100 mg/kg i.p. As for the experimental part: Excretion of TRX-E-002-1 was investigated in female Sprague–Dawley rats that received a single intraperitoneal injection of TRX-E-002-1 100 mg/kg in 20% SBECD. High levels of parent drug were measured in urine up to 24 h after dosing and in faeces up to 48 h after dosing. The glucuronide conjugate, measured as the increase in TRX-E-002-1 following treatment of the samples with beta-glucuronidase, was found at levels similar to those of parent drug in faeces (rectal contents) up to 2 h after dosing, but was barely detectable in urine. Total amounts of parent drug and glucuronide excreted in faeces and urine were not calculated, so that the relative contributions of renal and biliary excretion pathways cannot be evaluated.

The nature of data set [13]: Dog 14-day pilot toxicity study with toxicokinetics, intraperitoneal. Particulars: both, beagle, dog, plasma.
Experimental: For the dog 14-day pilot study, male and female beagle dogs were dosed once daily with intraperitoneal injections of vehicle (1:2 dilutions of 20% SBECD in 0.9% saline) or Cantrixil (10, 30 or 100 mg/kg) for 14 days. The doses were administered via an implanted catheter.
The mark [14] stands for this setting: 100 mg/kg i.p. once daily in 20% SBECD for 4 weeks.

As usually defined, the IC50 is the concentration that gives 50% inhibition. High values mean weaker potency, low ones greater potency. As a reminder, the half-life is how long it takes for the measured level to halve. As usually defined, the Tmax is the time from dosing to the highest level. Regarding `COc1cc([C@@H]2COc3c(ccc(O)c3C)[C@@H]2c2ccc(O)cc2)cc(OC)c1O` [TRX-E-002-1, (+) cis-4-(para-hydroxyphenyl)-7,4′-dihydroxy-3′,5′-dimethoxy-8-methylisoflavan], the IC50 in data set [1] was found to be 14 ± 9 nM; in data set [2], 41 ± 14 nM; in [3], 96 ± 77 nM; in data set [4], 23 ± 6 nM; in data set [5] it was 45 ± 5 nM; in data set [5] (Homo sapiens, LoVo, 72 h), 84 nM. The IC50 was 227 ± 55 nM in data set [6], 58 nM in data set [7], 65 ± 2 nM in data set [8] and 1760 ± 1380 nM in [9]. Also, the “effect on QTc interval” value in data set [10] (1, 10 or 30 mg/kg i.p., ECG telemetry) was “no effect”. Moreover, the “blood pressure and heart rate” value in data set [10] (10 and/or 30 mg/kg i.p., not considered adverse) is on record as “slight, transient increases”. The “reduction of terminal tumour burden” value in data set [11] (setting [14]) is 77%. The tumour growth result in [11] (setting [14]) is on record as “inhibited”. In data set [11] (paclitaxel 12 mg/kg twice weekly), the “efficacy compared with paclitaxel” value is listed as “more effective”. For the same compound, the “parent drug in urine” value in data set [12] (up to 24 h after dosing) is listed as “High levels”. For the same compound, the “parent drug in faeces” value in data set [12] (up to 48 h after dosing) is reported as “High levels”. This compound also came in with a half-life in data set [13] (intraperitoneal) of 2 to 2.7 h. The Tmax in data set [13] (ip, 100 mg/kg) lay within 0.5 to 2 h.
